Several values for one entry are separate records, joined by “and”; a condition that tells them apart may be missing. Equal values may be shown once.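 These data come from cells grown in 96-well plates and exposed to compound for 48 hours at five concentrations. Here, GI50 denotes the concentration required for 50% inhibition of growth. Definition used: TGI = concentration required for complete inhibition of growth.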
Key:
Assay in all cases: NCI tumour cell line growth inhibition, 48 h
XF 498 CNS = system: XF 498 CNS
K-562 leukemia = system: K-562 leukemia
SF-295 CNS = system: SF-295 CNS
A498 renal = system: A498 renal
SK-MEL-5 melanoma = system: SK-MEL-5 melanoma
HCT-116 colon = system: HCT-116 colon
HCC-2998 colon = system: HCC-2998 colon
HL-60(TB) leukemia = system: HL-60(TB) leukemia
DMS 114 small cell lung = system: DMS 114 small cell lung
MCF7 breast = system: MCF7 breast
SNB-75 CNS = system: SNB-75 CNS
SF-268 CNS = system: SF-268 CNS
IGROV1 ovarian = system: IGROV1 ovarian
LOX IMVI melanoma = system: LOX IMVI melanoma
HT29 colon = system: HT29 colon
MOLT-4 leukemia = system: MOLT-4 leukemia
SK-MEL-2 melanoma = system: SK-MEL-2 melanoma
CAKI-1 renal = system: CAKI-1 renal
HOP-92 NSCLC = system: HOP-92 NSCLC
OVCAR-8 ovarian = system: OVCAR-8 ovarian
UO-31 renal = system: UO-31 renal
NCI-H226 lung = system: NCI-H226 lung
A549 NSCLC = system: A549 NSCLC
KM12 colon = system: KM12 colon
SN12K1 renal = system: SN12K1 renal
HOP-62 NSCLC = system: HOP-62 NSCLC
SK-OV-3 ovarian = system: SK-OV-3 ovarian
NCI/ADR-RES ovarian = system: NCI/ADR-RES ovarian
RPMI-8226 leukemia = system: RPMI-8226 leukemia
MALME-3M melanoma = system: MALME-3M melanoma
KM20L2 colon = system: KM20L2 colon
SN12C renal = system: SN12C renal
SNB-78 CNS = system: SNB-78 CNS
M19-MEL melanoma = system: M19-MEL melanoma
SK-MEL-28 melanoma = system: SK-MEL-28 melanoma
RXF 393 renal = system: RXF 393 renal
P388/ADR leukemia = system: P388/ADR leukemia
OVCAR-4 ovarian = system: OVCAR-4 ovarian
UACC-62 melanoma = system: UACC-62 melanoma
NCI-H522 lung = system: NCI-H522 lung
COLO 205 colon = system: COLO 205 colon
NCI-H23 lung = system: NCI-H23 lung
NCI-H460 lung = system: NCI-H460 lung
SF-539 CNS = system: SF-539 CNS
OVCAR-5 ovarian = system: OVCAR-5 ovarian
OVCAR-3 ovarian = system: OVCAR-3 ovarian
SNB-19 CNS = system: SNB-19 CNS
EKVX NSCLC = system: EKVX NSCLC
SW-620 colon = system: SW-620 colon
UACC-257 melanoma = system: UACC-257 melanoma
DLD-1 colon = system: DLD-1 colon
HCT-15 colon = system: HCT-15 colon
DMS 273 small cell lung = system: DMS 273 small cell lung
HOP-18 NSCLC = system: HOP-18 NSCLC
786-0 renal = system: 786-0 renal
SR leukemia = system: SR leukemia
M14 melanoma = system: M14 melanoma
U251 CNS = system: U251 CNS
ACHN renal = system: ACHN renal
CCRF-CEM leukemia = system: CCRF-CEM leukemia
LXFL 529 NSCLC = system: LXFL 529 NSCLC
TK-10 renal = system: TK-10 renal

SMILES: COc1cc(C2c3cc4c(cc3[C@@H](Nc3cccc([N+](=O)[O-])c3)C3COC(=O)[C@H]23)OCO4)cc(OC)c1O (stereo partly specified)
- TGI (XF 498 CNS): > 40.2 µM
- TGI (K-562 leukemia): > 40.5 µM
- TGI (SF-295 CNS): 4.94 µM
- TGI (A498 renal): 4.47 µM
- TGI (SK-MEL-5 melanoma): 7.87 µM
- TGI (HCT-116 colon): 21.6 µM
- TGI (HCC-2998 colon): 6.41 µM
- TGI (HL-60(TB) leukemia): 4.3 µM
- TGI (DMS 114 small cell lung): 9.18 µM
- TGI (MCF7 breast): > 100 µM
- TGI (SNB-75 CNS): > 22.7 µM
- TGI (SF-268 CNS): > 51.5 µM
- TGI (IGROV1 ovarian): > 84.4 µM
- TGI (LOX IMVI melanoma): 19.6 µM
- TGI (HT29 colon): 13.1 µM
- TGI (MOLT-4 leukemia): 3.37 µM
- TGI (SK-MEL-2 melanoma): 36.5 µM
- TGI (CAKI-1 renal): 7.46 µM
- TGI (HOP-92 NSCLC): 27.7 µM
- TGI (OVCAR-8 ovarian): > 32.9 µM
- TGI (UO-31 renal): > 29 µM
- TGI (NCI-H226 lung): 7.94 µM
- TGI (A549 NSCLC): 4.38 µM
- TGI (KM12 colon): 16.9 µM
- TGI (SN12K1 renal): 10.3 µM
- TGI (HOP-62 NSCLC): 3.31 µM
- TGI (SK-OV-3 ovarian): 9.67 µM
- TGI (NCI/ADR-RES ovarian): > 54.2 µM
- TGI (RPMI-8226 leukemia): 32.1 µM
- TGI (MALME-3M melanoma): 20.1 µM
- TGI (KM20L2 colon): > 42 µM
- TGI (SN12C renal): > 22.2 µM
- TGI (SNB-78 CNS): 53.9 µM
- TGI (M19-MEL melanoma): > 100 µM
- TGI (SK-MEL-28 melanoma): > 100 µM
- TGI (RXF 393 renal): 7.41 µM
- TGI (P388/ADR leukemia): 5.58 µM
- TGI (OVCAR-4 ovarian): > 100 µM
- TGI (UACC-62 melanoma): 15.7 µM
- TGI (NCI-H522 lung): 11.7 µM
- TGI (COLO 205 colon): 18.1 µM
- TGI (NCI-H23 lung): 4.65 µM
- TGI (NCI-H460 lung): 1.72 µM
- TGI (SF-539 CNS): 4.02 µM
- TGI (OVCAR-5 ovarian): > 100 µM
- TGI (OVCAR-3 ovarian): 33.2 µM
- TGI (SNB-19 CNS): > 31.4 µM
- TGI (EKVX NSCLC): > 38.2 µM
- TGI (SW-620 colon): > 65.4 µM
- TGI (UACC-257 melanoma): 35.2 µM
- TGI (DLD-1 colon): 17.1 µM
- TGI (HCT-15 colon): 4.12 µM
- TGI (DMS 273 small cell lung): 6.11 µM
- TGI (HOP-18 NSCLC): 39.3 µM

SMILES: Cc1ccc2c(c1)CNc1ccc(C)cc1CN2
- TGI (XF 498 CNS): > 100 µM
- TGI (K-562 leukemia): > 100 µM
- TGI (SF-295 CNS): > 100 µM
- TGI (786-0 renal): > 100 µM
- TGI (SK-MEL-5 melanoma): > 100 µM
- TGI (HCT-116 colon): > 100 µM
- TGI (SR leukemia): > 100 µM
- TGI (HL-60(TB) leukemia): > 100 µM
- TGI (DMS 114 small cell lung): > 100 µM
- TGI (SNB-75 CNS): > 100 µM
- TGI (SF-268 CNS): > 100 µM
- TGI (M14 melanoma): > 100 µM
- TGI (IGROV1 ovarian): > 100 µM
- TGI (LOX IMVI melanoma): > 100 µM
- TGI (HT29 colon): > 100 µM
- TGI (MOLT-4 leukemia): > 100 µM
- TGI (SK-MEL-2 melanoma): > 100 µM
- TGI (CAKI-1 renal): > 100 µM
- TGI (HOP-92 NSCLC): > 100 µM
- TGI (OVCAR-8 ovarian): > 100 µM
- TGI (UO-31 renal): > 100 µM
- TGI (NCI-H226 lung): > 100 µM
- TGI (A549 NSCLC): > 100 µM
- TGI (KM12 colon): > 100 µM
- TGI (U251 CNS): > 100 µM
- TGI (HOP-62 NSCLC): > 100 µM
- TGI (SK-OV-3 ovarian): > 100 µM
- TGI (ACHN renal): > 100 µM
- TGI (RPMI-8226 leukemia): > 100 µM
- TGI (SN12C renal): > 100 µM
- TGI (CCRF-CEM leukemia): > 100 µM
- TGI (SNB-78 CNS): > 100 µM
- TGI (M19-MEL melanoma): > 100 µM
- TGI (OVCAR-4 ovarian): > 100 µM
- TGI (UACC-62 melanoma): > 100 µM
- TGI (NCI-H522 lung): > 100 µM
- TGI (LXFL 529 NSCLC): > 100 µM
- TGI (COLO 205 colon): > 100 µM
- TGI (NCI-H23 lung): > 100 µM
- TGI (NCI-H460 lung): > 100 µM
- TGI (SF-539 CNS): > 100 µM
- TGI (OVCAR-5 ovarian): > 100 µM
- TGI (OVCAR-3 ovarian): > 100 µM
- TGI (EKVX NSCLC): > 100 µM
- TGI (SW-620 colon): > 100 µM
- TGI (DLD-1 colon): > 100 µM
- TGI (HCT-15 colon): > 100 µM
- TGI (DMS 273 small cell lung): > 100 µM
- TGI (HOP-18 NSCLC): > 100 µM

SMILES: Oc1ccccc1-c1n[nH]c(=S)n1/N=C/c1ccc(-c2ccc(Br)cc2)o1
- TGI (K-562 leukemia): > 100 µM
- TGI (SF-295 CNS): > 100 µM
- TGI (786-0 renal): > 100 µM
- TGI (HCT-116 colon): > 100 µM
- TGI (SNB-75 CNS): > 100 µM
- TGI (SF-268 CNS): > 100 µM
- TGI (M14 melanoma): > 100 µM
- TGI (IGROV1 ovarian): 92.6 µM
- TGI (LOX IMVI melanoma): 56.7 µM
- TGI (HT29 colon): > 100 µM
- TGI (MOLT-4 leukemia): > 100 µM
- TGI (HOP-92 NSCLC): 47.8 µM
- TGI (OVCAR-8 ovarian): 90.1 µM
- TGI (TK-10 renal): 51.1 µM
- TGI (UO-31 renal): 66.2 µM
- TGI (NCI-H226 lung): 52.2 µM
- TGI (A549 NSCLC): > 100 µM
- TGI (KM12 colon): > 100 µM
- TGI (U251 CNS): 56.5 µM
- TGI (HOP-62 NSCLC): > 100 µM
- TGI (SK-OV-3 ovarian): 95.1 µM
- TGI (ACHN renal): 92 µM
- TGI (KM20L2 colon): > 100 µM
- TGI (SNB-78 CNS): 75.2 µM
- TGI (M19-MEL melanoma): > 100 µM
- TGI (SK-MEL-28 melanoma): > 100 µM
- TGI (OVCAR-4 ovarian): 50.5 µM
- TGI (UACC-62 melanoma): 40.3 µM
- TGI (NCI-H522 lung): > 100 µM
- TGI (LXFL 529 NSCLC): 71.4 µM
- TGI (COLO 205 colon): > 100 µM
- TGI (NCI-H23 lung): 43.1 µM
- TGI (NCI-H460 lung): > 100 µM
- TGI (SF-539 CNS): > 100 µM
- TGI (OVCAR-5 ovarian): > 100 µM
- TGI (OVCAR-3 ovarian): 80.5 µM
- TGI (SNB-19 CNS): 56.1 µM
- TGI (SW-620 colon): > 100 µM
- TGI (UACC-257 melanoma): 59.6 µM
- TGI (DLD-1 colon): > 100 µM

SMILES: CC1C(=O)C(C)C(c2ccccc2)N(C)C1c1ccccc1 (stereo unspecified)
- GI50 (K-562 leukemia): 33.2 µM and 73.4 µM
- TGI (K-562 leukemia): > 100 µM
- GI50 (SF-295 CNS): 28 µM and 87.4 µM
- TGI (SF-295 CNS): 93.9 µM and > 100 µM
- GI50 (HCT-116 colon): 15.7 µM and 40.3 µM
- TGI (HCT-116 colon): 30.8 µM and > 100 µM
- TGI (SR leukemia): 48.2 µM and > 100 µM
- TGI (HL-60(TB) leukemia): 45.5 µM and > 100 µM
- GI50 (DMS 114 small cell lung): 30 µM and 75.1 µM
- TGI (DMS 114 small cell lung): 99.7 µM and > 100 µM
- GI50 (LOX IMVI melanoma): 15.8 µM and 86.2 µM
- TGI (LOX IMVI melanoma): 31.4 µM and > 100 µM
- TGI (HT29 colon): 91.4 µM and > 100 µM
- TGI (MOLT-4 leukemia): 57.7 µM and > 100 µM
- GI50 (KM12 colon): 23.7 µM and 90.3 µM
- TGI (KM12 colon): 67.7 µM and > 100 µM
- TGI (RPMI-8226 leukemia): 54.3 µM
- GI50 (KM20L2 colon): 32.8 µM and 85.8 µM
- TGI (KM20L2 colon): > 100 µM
- GI50 (NCI-H522 lung): 21.6 µM and 63 µM
- TGI (NCI-H522 lung): 52.5 µM and > 100 µM
- GI50 (LXFL 529 NSCLC): 42.6 µM and 97.9 µM
- TGI (LXFL 529 NSCLC): > 100 µM
- TGI (OVCAR-5 ovarian): > 100 µM
- GI50 (DLD-1 colon): 26.2 µM and 85.4 µM
- TGI (DLD-1 colon): > 100 µM
- GI50 (HCT-15 colon): 23.6 µM and 61.1 µM
- TGI (HCT-15 colon): 81.8 µM and > 100 µM

Reference: PubChem BioAssay (NCI)
